{
  "source": "patent US5260300A",
  "about": "“Rapamycin carbonate esters as immuno-suppressant agents” (American Home Products Corporation, priority 1992, dated 1993)",
  "key": {"[1]": {"test_system": "cells from the thymus of normal BALB/c mice (lymphocyte proliferation)", "experiment": "LAF assay: comitogen-induced thymocyte proliferation (inhibition of lymphocyte proliferation)", "format": "cell-based", "procedure": "Immunosuppressive activity was determined in an in vitro standard pharmacological test to measure lymphocyte proliferation (LAF). […] Thus in this assay, the invention compounds have LAF activity equal or greater than rapamycin and would therefore be expected to posses the immunological properties of rapamycin and be useful in the treatment of transplantation rejection and autoimmune diseases such as lupus, rheumatoid arthritis, diabetes mellitus, multiple sclerosis, psoriasis and the like. Because of the structural similarity of the invention compounds with rapamycin and other analogs having antifungal activity against several strains of Candida albicans, the compounds of this invention would also be expected to have antifungal properties. Similarly, the compounds of this invention would be expected to have antiinflammatory activity.\nThe comitogen-induced thymocyte proliferation procedure (LAF) was used as an in vitro measure of the immunosuppressive effects of representative compounds. Briefly, cells from the thymus of normal BALB/c mice are cultured for 72 hours with PHA and IL-1 and pulsed with tritiated thymidine during the last six hours. Cells are cultured with and without various concentrations of rapamycin, cyclosporin A, or test compound. Cells are harvested and incorporated; radioactivity is determined. Inhibition of lymphoproliferation is assessed in percent change in counts per minute from non-drug treated controls. The results are expressed by the following ratio, or as the percent inhibition of lymphoproliferation at a concentration of 1 μM or as the IC50. [formula]"}, "[2]": {"details": "cited from earlier work"}, "[3]": {"details": "in vivo; cited from earlier work"}, "[4]": {"test_system": "tumor", "details": "alone or in combination with picibanil; cited from earlier work"}, "[5]": {"details": "in vivo; cited from earlier work", "remark": "listed apart in the source"}, "[6]": {"test_system": "Candida albicans", "details": "particularly against Candida albicans; cited from earlier work"}, "[7]": {"test_system": "IgE-like antibodies", "details": "in vivo; cited from earlier work"}, "[8]": {"test_system": "Candida albicans", "details": "particularly against Candida albicans; cited from earlier work", "remark": "listed apart in the source"}, "[9]": {"details": "Mus musculus, Lymphocyte, 72 h, Table I, 72 hours culture with PHA and IL-1, read-out: IC50 Ester (IC50 data for LAF assay)"}},
  "note": "Several values for one entry are separate records, joined by “and”; a condition that tells them apart may be missing. Equal entries are not always repeated. Where two headings read alike, the source gives them in different places.",
  "data": [
    {"smiles": "CO[C@H]1C[C@@H]2CC[C@@H](C)[C@@](O)(O2)C(=O)C(=O)N2CCCC[C@H]2C(=O)O[C@H]([C@H](C)C[C@@H]2CC[C@@H](OC(=O)Oc3ccc([N+](=O)[O-])cc3)[C@H](OC)C2)CC(=O)[C@H](C)/C=C(\\C)[C@@H](O)[C@@H](OC)C(=O)[C@H](C)C[C@H](C)/C=C/C=C/C=C/1C", "note": "[Example 4A, 42-O-(4-Nitrophenyloxycarbonyl)rapamycin]", "values": [
      {"measurement": "IC50", "setting": "[1]; [9]", "value": 1, "unit": "nM"}
    ]},
    {"smiles": "C=CCOC(=O)O[C@@H]1CC[C@@H](C[C@@H](C)[C@@H]2CC(=O)[C@H](C)/C=C(\\C)[C@@H](O)[C@@H](OC)C(=O)[C@H](C)C[C@H](C)/C=C/C=C/C=C(\\C)[C@@H](OC)C[C@@H]3CC[C@@H](C)[C@@](O)(O3)C(=O)C(=O)N3CCCC[C@H]3C(=O)O2)C[C@H]1OC", "note": "[Example 5, 42-O-(Prop-2-enyloxycarbonyl)rapamycin]", "values": [
      {"measurement": "IC50", "setting": "[1]; [9]", "value": 1.6, "unit": "nM"}
    ]},
    {"smiles": "CO[C@H]1C[C@@H]2CC[C@@H](C)[C@@](O)(O2)C(=O)C(=O)N2CCCC[C@H]2C(=O)O[C@H]([C@H](C)C[C@@H]2CC[C@@H](OC(=O)OCc3ccccc3)[C@H](OC)C2)CC(=O)[C@H](C)/C=C(\\C)[C@@H](O)[C@@H](OC)C(=O)[C@H](C)C[C@H](C)/C=C/C=C/C=C/1C", "note": "[Example 6, 42-O-(Benzyloxycarbonyl)rapamycin]", "values": [
      {"measurement": "IC50", "setting": "[1]; [9]", "value": 0.32, "unit": "nM"}
    ]},
    {"smiles": "CO[C@H]1C[C@@H]2CC[C@@H](C)[C@@](O)(O2)C(=O)C(=O)N2CCCC[C@H]2C(=O)O[C@H]([C@H](C)C[C@@H]2CC[C@@H](OC(=O)Oc3ccc([N+](=O)[O-])cc3)[C@H](OC)C2)CC(=O)[C@H](C)/C=C(\\C)[C@@H](OC(=O)Oc2ccc([N+](=O)[O-])cc2)[C@@H](OC)C(=O)[C@H](C)C[C@H](C)/C=C/C=C/C=C/1C", "note": "[Example 4B, 31, 42-O-Bis(4-Nitrophenyloxycarbonyl)rapamycin]", "values": [
      {"measurement": "IC50", "setting": "[1]; Mus musculus, Lymphocyte, 72 h, read-out: IC50 Ester (IC50 data for LAF assay)", "value": 23, "unit": "nM"}
    ]},
    {"smiles": "COC(=O)O[C@@H]1CC[C@@H](C[C@@H](C)[C@@H]2CC(=O)[C@H](C)/C=C(\\C)[C@@H](O)[C@@H](OC)C(=O)[C@H](C)C[C@H](C)/C=C/C=C/C=C(\\C)[C@@H](OC)C[C@@H]3CC[C@@H](C)[C@@](O)(O3)C(=O)C(=O)N3CCCC[C@H]3C(=O)O2)C[C@H]1OC", "note": "[Example 1B, 42-O-Methoxycarbonylrapamycin]", "values": [
      {"measurement": "IC50", "setting": "[1]; [9]", "value": 2.5, "unit": "nM"}
    ]},
    {"smiles": "CO[C@H]1C[C@@H]2CC[C@@H](C)[C@@](O)(O2)C(=O)C(=O)N2CCCC[C@H]2C(=O)O[C@H]([C@H](C)C[C@@H]2CC[C@@H](OC(=O)Oc3ccccc3)[C@H](OC)C2)CC(=O)[C@H](C)/C=C(\\C)[C@@H](O)[C@@H](OC)C(=O)[C@H](C)C[C@H](C)/C=C/C=C/C=C/1C", "note": "[Example 3, 42-O-(Phenyloxycarbonyl)rapamycin]", "values": [
      {"measurement": "IC50", "setting": "[1]; [9]", "value": 0.34, "unit": "nM"}
    ]},
    {"smiles": "CCOC(=O)O[C@@H]1CC[C@@H](C[C@@H](C)[C@@H]2CC(=O)[C@H](C)/C=C(\\C)[C@@H](O)[C@@H](OC)C(=O)[C@H](C)C[C@H](C)/C=C/C=C/C=C(\\C)[C@@H](OC)C[C@@H]3CC[C@@H](C)[C@@](O)(O3)C(=O)C(=O)N3CCCC[C@H]3C(=O)O2)C[C@H]1OC", "note": "[Example 2B, 42-O-Ethoxycarbonylrapamycin]", "values": [
      {"measurement": "IC50", "setting": "[1]; [9]", "value": 0.6, "unit": "nM"}
    ]},
    {"smiles": "C=CC[C@@H]1/C=C(\\C)C[C@H](C)C[C@H](OC)[C@H]2O[C@@](O)(C(=O)C(=O)N3CCCC[C@H]3C(=O)O[C@H](/C(C)=C/[C@@H]3CC[C@@H](O)[C@H](OC)C3)[C@H](C)[C@@H](O)CC1=O)[C@H](C)C[C@@H]2OC", "note": "[FK-506]", "values": [
      {"measurement": "effectiveness as immunosuppressive agent", "setting": "[2]; useful in preventing transplant rejection", "value": "effective as immunosuppressive agents"}
    ]},
    {"smiles": "COC(=O)O[C@@H]1/C(C)=C/[C@@H](C)C(=O)C[C@@H]([C@H](C)C[C@@H]2CC[C@@H](OC(=O)OC)[C@H](OC)C2)OC(=O)[C@@H]2CCCCN2C(=O)C(=O)[C@]2(O)O[C@@H](CC[C@H]2C)C[C@H](OC)/C(C)=C/C=C/C=C/[C@@H](C)C[C@@H](C)C(=O)[C@@H]1OC", "note": "[Example 1A, 31, 42-O-Bis(methoxycarbonyl)rapamycin]", "values": [
      {"measurement": "IC50", "setting": "[1]; [9]", "value": 0.87, "unit": "nM"}
    ]},
    {"smiles": "CCOC(=O)O[C@@H]1/C(C)=C/[C@@H](C)C(=O)C[C@@H]([C@H](C)C[C@@H]2CC[C@@H](OC(=O)OCC)[C@H](OC)C2)OC(=O)[C@@H]2CCCCN2C(=O)C(=O)[C@]2(O)O[C@@H](CC[C@H]2C)C[C@H](OC)/C(C)=C/C=C/C=C/[C@@H](C)C[C@@H](C)C(=O)[C@@H]1OC", "note": "[Example 2A, 31, 42-O-Bis(ethoxycarbonyl)rapamycin]", "values": [
      {"measurement": "IC50", "setting": "[1]; [9]", "value": 2, "unit": "nM"}
    ]},
    {"smiles": "CO[C@H]1C[C@@H]2CC[C@@H](C)[C@@](O)(O2)C(=O)C(=O)N2CCCC[C@H]2C(=O)O[C@H]([C@H](C)C[C@@H]2CC[C@@H](O)[C@H](OC)C2)CC(=O)[C@H](C)/C=C(\\C)[C@@H](O)[C@@H](OC)C(=O)[C@H](C)C[C@H](C)/C=C/C=C/C=C/1C", "note": "[Rapamycin]", "values": [
      {"measurement": "inhibition of transplant rejection", "setting": "[2]; in vivo", "value": "effective in inhibiting transplant rejection"},
      {"measurement": "efficacy in adjuvant arthritis model", "setting": "[3]", "value": "effective"},
      {"measurement": "antitumor activity", "setting": "[4]", "value": "antitumor activity"},
      {"measurement": "efficacy in experimental allergic encephalomyelitis model", "setting": "[5]", "value": "effective"},
      {"measurement": "antifungal activity in vivo", "setting": "[6]", "value": "antifungal activity, particularly against Candida albicans"},
      {"measurement": "IC50", "setting": "[1]; Table I, Rapamycin, comparative result beside each example ester, read-out: IC50 Rapamycin (IC50 data for LAF assay)", "value": "3.9 nM and 3.8 nM and 6.3 nM"},
      {"measurement": "inhibition of formation of IgE-like antibodies", "setting": "[7]", "value": "effectively inhibited"},
      {"measurement": "antifungal activity in vitro", "setting": "[8]", "value": "antifungal activity, particularly against Candida albicans"}
    ]}
  ]
}
